Reference: patent publication US10239875B2, “Naphthyridinyl hydrazine derivatives as potent peripheral analgesic agents” (KING SAUD UNIVERSITY, priority 2017, dated 2019)

System: Albino mice
Assay: mouse writhing test (acetic acid-induced), peripheral analgesic activity
Format: in vivo
Settings: for No. of writhes/20 min: 30 min before i.p. acetic acid 0.7% 10 mL/kg, mean ± S.E.; for Protection (%) / analgesic activity compared with acetylsalicylic acid / placebo control (in words): writhing test; for Protection (%): versus placebo control mean; for analgesic activity compared with acetylsalicylic acid / placebo control (in words): 20 mg/kg orally vs acetylsalicylic acid 150 mg/kg, Dunnett's test P < 0.05
Procedure: The test compounds synthesized in Examples 2-11 were tested for analgesic activity as follows. Albino mice of both sexes (27-30 g body weight each) were used in the experiments. Mice used in this experiment were obtained from the Animal House Colony at the National Research Centre (NRC), Egypt. All animals were housed under standard conditions of natural 12-hour light and dark cycles with free access to food and water. Animals were allowed to adapt to the laboratory environment for one week before use in experimentation. All animal procedures were first approved by the Ethics Committee of the NRC, Egypt, and were performed in accordance with standard recommendations and guidelines for proper care and use of laboratory animals.
The peripheral analgesic activities of compounds 1 to 10 were determined in mice using the standard writhing test. Seventy-two mice were divided into 12 groups of 6 mice. Mice of the first (placebo control) and last (active control) groups were treated orally (p.o.) with the vehicle (5 mL/kg) or acetyl salicylic acid (150 mg/kg), respectively. Animals of the second to eleventh groups were orally given one of the selected compounds at doses of 20 mg/kg. Once 30 minutes passed after administration of medication, each mouse received an intraperitoneal injection of acetic acid (0.7% aqueous solution) in a dose of 10 mL/kg to induce writhing. The mice were then placed in transparent boxes, and the number of writhes per animal was counted for 20 minutes after acetic acid injection. The “protection %” was calculated using the following equation: Protection (%)=[Control mean−Treated mean/Control mean]×100.

[1] = acetylsalicylic acid 150 mg/kg orally in DW
[2] = test compound 20 mg/kg orally in DMSO

SMILES	No. of writhes/20 min [1]	Protection (%) [1]	No. of writhes/20 min [2]	Protection (%) [2]	analgesic activity compared with acetylsalicylic acid / placebo control (in words)
CC(=O)Oc1ccccc1C(=O)O [Acetylsalicylic acid, acetylsalicylic acid, reference compound]	17.4 ± 1.57 writhes/20 min	78.47%			
Cc1ccc2c(NN=Cc3ccc(N4CCOCC4)cc3)cc(C)nc2n1 [Compound 1]			24.8 ± 1.02 writhes/20 min	69.31%	analgesic activity close to that of acetylsalicylic acid
Cc1ccc2c(NN=Cc3ccc(N4CCNCC4)cc3)cc(C)nc2n1 [Compound 2]			39.6 ± 3.14 writhes/20 min	50.99%	
Cc1ccc2c(NN=Cc3ccc(N4CCCCC4)cc3)cc(C)nc2n1 [Compound 3]			36.2 ± 2.58 writhes/20 min	55.20%	
Cc1ccc2c(NN=Cc3ccc(N4CCN(C)CC4)cc3)cc(C)nc2n1 [Compound 4]			44.8 ± 2.85 writhes/20 min	44.55%	
CC(=NNc1cc(C)nc2nc(C)ccc12)c1ccc(N2CCOCC2)cc1 [Compound 5]			29.2 ± 2.50 writhes/20 min	63.86%	
CC(=NNc1cc(C)nc2nc(C)ccc12)c1ccc(N2CCNCC2)cc1 [Compound 6]			26.2 ± 1.32 writhes/20 min	67.57%	analgesic activity close to that of acetylsalicylic acid
CC(=NNc1cc(C)nc2nc(C)ccc12)c1ccc(N2CCCCC2)cc1 [Compound 7]			23.6 ± 2.16 writhes/20 min	70.79%	analgesic activity close to that of acetylsalicylic acid
